Data on 17 compounds can be found in patent publication US11878970B2, “Allosteric chromenone inhibitors of phosphoinositide 3-kinase (PI3K) for the treatment of disease” (Petra Pharma Corporation, priority 2021, dated 2024).

Molecules are shown by their SMILES.

For assay [1], the target named is T1, PI3K-α (PIK3CA) wild-type (WT), p110α/p85α complex (Homo sapiens, UniProt P42336).
T1 construct: Recombinant, catalytically active human full length PIK3KA Wild-type and H1047R mutant; 6×His (N); purchased EMD Millipore Sigma 14-602M
The assay is described as follows: PI3K-alpha kinase (PIK3CA) biochemical activity, ADP-Glo, wild-type. The conditions noted are these: Soy PI lipid substrate. An outline of the steps: (§1)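 ADP formation measured by ADP-Glo luminescence after reaction at 27 °C to about 10% ATP turnover, using 20 uM ATP, 50 uM PIP2diC8 or soy PI lipid, HEPES pH 7.4 with MgCl2. Enzyme (1-5 nM WT or H1047R p110α/p85α) and compound preincubated 1 h first; 10-point 1:3 curves fitted four-parameter for IC50.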

For assay [2], the target named is T2, PI3K-α (PIK3CA) H1047R mutant, p110α/p85α complex (Homo sapiens, UniProt P42336, H1047R).
T2 construct: Recombinant, catalytically active human full length PIK3KA Wild-type and H1047R mutant; 6×His (N); purchased EMD Millipore Sigma 14-792M
T2 sequence (P42336 whole entry H1047R): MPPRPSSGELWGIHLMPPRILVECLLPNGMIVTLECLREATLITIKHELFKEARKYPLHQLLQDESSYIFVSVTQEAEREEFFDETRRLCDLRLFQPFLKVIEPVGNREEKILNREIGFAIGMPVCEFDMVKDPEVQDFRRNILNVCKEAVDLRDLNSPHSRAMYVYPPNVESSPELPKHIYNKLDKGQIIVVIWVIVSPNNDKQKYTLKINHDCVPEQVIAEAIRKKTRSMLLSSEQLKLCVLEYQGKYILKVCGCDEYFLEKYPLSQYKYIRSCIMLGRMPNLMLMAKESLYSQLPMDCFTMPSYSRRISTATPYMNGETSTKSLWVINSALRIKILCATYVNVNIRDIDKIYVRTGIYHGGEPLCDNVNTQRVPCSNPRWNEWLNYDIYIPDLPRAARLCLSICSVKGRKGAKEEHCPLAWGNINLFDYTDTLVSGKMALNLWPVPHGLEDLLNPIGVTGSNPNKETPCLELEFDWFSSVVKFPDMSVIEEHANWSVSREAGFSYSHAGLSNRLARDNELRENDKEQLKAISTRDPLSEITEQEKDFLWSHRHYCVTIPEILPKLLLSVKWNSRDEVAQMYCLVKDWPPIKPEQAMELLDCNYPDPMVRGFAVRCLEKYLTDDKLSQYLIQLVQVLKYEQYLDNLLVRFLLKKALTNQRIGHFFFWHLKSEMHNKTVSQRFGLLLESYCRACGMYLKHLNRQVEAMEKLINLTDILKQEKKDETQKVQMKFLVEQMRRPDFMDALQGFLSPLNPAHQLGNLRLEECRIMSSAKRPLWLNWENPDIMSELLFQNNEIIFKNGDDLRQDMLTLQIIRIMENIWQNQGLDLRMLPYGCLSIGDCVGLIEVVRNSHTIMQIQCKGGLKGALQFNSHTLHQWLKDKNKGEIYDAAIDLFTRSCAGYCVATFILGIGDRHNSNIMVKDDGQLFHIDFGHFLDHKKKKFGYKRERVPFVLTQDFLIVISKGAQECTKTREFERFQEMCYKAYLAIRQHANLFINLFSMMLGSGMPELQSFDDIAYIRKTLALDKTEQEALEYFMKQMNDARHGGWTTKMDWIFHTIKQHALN
T2 sequence (P27986 whole entry partner): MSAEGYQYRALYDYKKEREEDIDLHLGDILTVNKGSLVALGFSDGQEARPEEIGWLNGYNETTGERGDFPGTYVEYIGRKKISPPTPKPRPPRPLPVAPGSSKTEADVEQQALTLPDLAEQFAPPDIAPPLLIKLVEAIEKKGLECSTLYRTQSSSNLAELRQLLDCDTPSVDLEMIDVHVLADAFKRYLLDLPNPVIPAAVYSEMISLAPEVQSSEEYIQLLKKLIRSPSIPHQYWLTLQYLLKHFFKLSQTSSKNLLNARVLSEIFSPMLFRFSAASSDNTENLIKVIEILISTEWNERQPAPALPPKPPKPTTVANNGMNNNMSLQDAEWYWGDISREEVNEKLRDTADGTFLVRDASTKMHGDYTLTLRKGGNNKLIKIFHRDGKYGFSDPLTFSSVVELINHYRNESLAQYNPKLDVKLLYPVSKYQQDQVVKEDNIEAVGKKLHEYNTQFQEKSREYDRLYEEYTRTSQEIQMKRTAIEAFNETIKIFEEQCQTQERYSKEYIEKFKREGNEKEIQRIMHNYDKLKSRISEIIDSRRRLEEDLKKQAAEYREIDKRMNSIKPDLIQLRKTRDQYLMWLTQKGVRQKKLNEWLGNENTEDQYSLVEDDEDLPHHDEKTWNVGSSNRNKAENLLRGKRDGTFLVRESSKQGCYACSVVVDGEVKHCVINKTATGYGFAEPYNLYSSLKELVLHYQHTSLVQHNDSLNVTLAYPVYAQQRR
The assay can be described thus: PI3K-alpha kinase (PIK3CA) biochemical activity, ADP-Glo, H1047R mutant. To be noted: Soy PI lipid substrate. A digest of the protocol:
as §1

Assay [3] concerns the target PI3K-α (PIK3CA) in MDA-MB-453 cells (Homo sapiens, UniProt P42336). The assay can be described thus: PI3K-alpha kinase (PIK3CA) in vitro cell based assay, MDA-MB-453 cells, SureFire Ultra AlphaLisa. The conditions noted are these: read-out: PI3K-α (PIK3CA) in vitro cell based assay IC50. The procedure: PI3K-Alpha Kinase (PIK3CA) Activity In Vitro Cell Based Assay and Determining IC50 Values for Inhibitors
The MDA-MB-453 (ATCC-HTB-131) cell line was obtained from the American Type Culture Collection (Manassas, VA). Cells were maintained in Dulbecco's Modified Eagle Media (DMEM, Gibco 11965-092) supplemented with 10% Fetal Bovine Serum, heat inactivated (FBS HI, Gibco 10082-147), 1× non-essential amino acids (NEAA, Gibco 11140-050), and 1 mM sodium pyruvate (Gibco 11360-070). Cultures were maintained in a humidified incubator at 37° C. under 5% CO2/95% air.
For compound testing in 0% FBS, MDA-MB-453 cells were seeded at a density of 1.5×10^4 cells per well in white 384-well plates in 20 μl of Minimum Essential Media (MEM) assay media with 1×NEAA, 1 mM sodium pyruvate, and 1 μg/mL human insulin (Sigma I9278). Compounds dissolved in 10 mM stock solutions in DMSO were serially diluted 1:3 in DMSO to generate a 10-point dilution series and plated using an acoustic liquid handler system (Echo 550 Series Liquid Handler, Labcyte). A 5× intermediate compound dilution plate in MEM with 1×NEAA and 1 mM sodium pyruvate (150 μM starting compound concentration in 1.5% DMSO) was then prepared. Five μl of the intermediate serially diluted compounds were added to the cell plate to final concentrations ranging from […] in 0.3% DMSO. 0.3% DMSO alone was used to establish the maximum (MAX) signal and GDC-0032 at a final concentration of 1 μM was used as a reference compound for the minimum (MIN) signal. After 3 hours treatment, the medium was removed, and the cells lysed in 10 μL of 1× SureFire Lysis buffer with shaking for 10 minutes at room temperature. The Acceptor Mix (Reaction Buffer 1+Reaction Buffer 2+Activation Buffer+SureFire Ultra Acceptor Beads) was prepared by diluting Activation buffer 25-fold in combined Reaction Buffer 1 and Reaction Buffer 2. The Acceptor beads were diluted 50-fold in the combined Reaction Buffers. Five μL of Acceptor Mix was added to each well, the plate was sealed and covered with foil and incubated for 1 hour at room temperature. The Donor Mix (dilution buffer+SureFire Ultra Donor Beads) was prepared by diluting Donor Beads 50-fold in dilution buffer. Five μL of the Donor Mix was added to each well and the plate sealed and covered with foil and incubated for 1 hour at room temperature in the dark. The plates were read on a Neo2 plate reader instrument from Biotek using standard AlphaLisa settings. Compounds were tested in duplicate and the average % inhibition at each compound concentration was used to generate a single dose response curve. The data were processed using the Genedata-Screener tool. Relative IC50 values were determined using luminescence units by calculating percent inhibition with respect to the in-plate “MIN” (GDC-0032 reference control) and “MAX” (DMSO) controls. The data was analyzed using a 4-parameter nonlinear logistic equation (four-parameter logistic concentration-response curve): Y=bottom+[(top−bottom)/1+(X/IC50)slope] where Y=% inhibition, X=concentration of inhibitor, bottom=minimum value of y attained by curve-fit, top=maximum value of y attained by curve-fit and slope=steepness of curve at the IC50. % Inhibition=[(signal at X−median Min)/(median Max−median Min)]×100 IC50: concentration of compound that reduces a given response (ligand binding, enzyme response) by 50%. Relative IC50: concentration giving half the compound's maximum response.

Sequence of PI3K-α (PIK3CA) in MDA-MB-453 cells (P27986 2-724): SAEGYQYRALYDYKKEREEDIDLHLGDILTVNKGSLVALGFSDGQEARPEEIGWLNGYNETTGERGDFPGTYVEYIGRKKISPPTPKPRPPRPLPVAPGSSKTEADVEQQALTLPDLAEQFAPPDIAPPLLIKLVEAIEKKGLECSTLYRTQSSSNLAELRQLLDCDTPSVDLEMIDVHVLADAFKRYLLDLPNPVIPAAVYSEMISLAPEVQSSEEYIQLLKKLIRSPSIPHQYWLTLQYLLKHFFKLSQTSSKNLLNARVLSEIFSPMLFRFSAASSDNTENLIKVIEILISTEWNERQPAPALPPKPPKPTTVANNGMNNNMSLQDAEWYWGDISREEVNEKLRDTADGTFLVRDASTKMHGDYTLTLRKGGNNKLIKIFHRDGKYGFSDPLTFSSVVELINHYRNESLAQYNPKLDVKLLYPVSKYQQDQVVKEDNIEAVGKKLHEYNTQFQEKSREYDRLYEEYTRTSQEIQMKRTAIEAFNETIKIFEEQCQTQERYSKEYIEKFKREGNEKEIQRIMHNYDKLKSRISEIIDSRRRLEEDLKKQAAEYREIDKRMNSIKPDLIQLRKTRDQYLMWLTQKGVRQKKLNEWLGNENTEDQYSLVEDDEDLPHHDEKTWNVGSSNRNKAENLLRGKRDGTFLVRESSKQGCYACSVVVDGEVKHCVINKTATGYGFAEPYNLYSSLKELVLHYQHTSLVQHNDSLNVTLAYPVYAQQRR
Sequence of PI3K-α (PIK3CA) in MDA-MB-453 cells (P42336 whole entry): as the sequence (P42336 whole entry H1047R) above, with R1047H counted along it

`Cc1cc([C@@H](C)Nc2ccc(C(F)(F)F)cc2C(=O)O)c2oc(-c3ccc4nn(C)cc4c3)c(C)c(=O)c2c1` [Example 235, 2-[[(1R)-1-[3,6-Dimethyl-2-(2-methylindazol-5-yl)-4-oxo-chromen-8-yl]ethyl]amino]-5-(trifluoromethyl)benzoic acid]: the half-inhibitory concentration (IC50) was 1000 to 5000 nM in assay [1], under 500 nM in assay [2] and 50 to 100 nM in assay [3].

With `Cc1cc(C(C)Nc2ccccc2C(=O)O)c2oc(-c3cccc4oc(C)nc34)cc(=O)c2c1` (single isomer, unassigned) [Example 117, 2-[1-[6-Methyl-2-(2-methyl-1,3-benzoxazol-4-yl)-4-oxo-chromen-8-yl]ethylamino]benzoic acid], the IC50 in assay [1] is 1000 to 5000 nM; in assay [2] it was 500 to 1000 nM; in assay [3], over 500 nM.

In the case of `Cc1cc(C(C)Nc2ccccc2C(=O)O)c2oc(-c3ccc4cnn(C)c4c3)cc(=O)c2c1` (single isomer, unassigned) [Example 25, 2-[1-[6-Methyl-2-(1-methylindazol-6-yl)-4-oxo-chromen-8-yl]ethylamino]benzoic acid], the half-inhibitory concentration (IC50) in assay [1] was under 500 nM; in assay [2], under 500 nM; in assay [3], 50 to 100 nM.

As to `Cc1cc(C(C)Nc2cccc(F)c2C(=O)O)c2oc(-c3ccc4cnn(C)c4c3)cc(=O)c2c1` (single isomer, unassigned) [Example 222, 2-fluoro-6-[1-[6-methyl-2-(1-methylindazol-6-yl)-4-oxo-chromen-8-yl]ethylamino]benzoic acid], the results for the half-inhibitory concentration (IC50) in assay [1], in assay [2] and in assay [3] were 500 to 1000 nM, under 500 nM and 100 to 500 nM, respectively.

As for `Cc1cc(C(C)Nc2ccccc2C(=O)O)c2oc(-c3ccn4cc(C)nc4c3)cc(=O)c2c1` (single isomer, unassigned) [Example 3, 2-[1-[6-Methyl-2-(2-methylimidazo[1,2-a]pyridin-7-yl)-4-oxo-chromen-8-yl]ethylamino]benzoic acid], the IC50 in assay [1] was 1000 to 5000 nM; in assay [2], under 500 nM; in assay [3] it was 50 to 100 nM.

`CC(Nc1ccccc1C(=O)O)c1cc(C(F)(F)F)cc2c(=O)cc(-c3ccc4c(cnn4C)c3)oc12` (single isomer, unassigned) [Example 109, 2-[1-[2-(1-Methylindazol-5-yl)-4-oxo-6-(trifluoromethyl)chromen-8-yl]ethylamino]benzoic acid]: the figures for the IC50 in assay [1], in assay [2] and in assay [3] were 1000 to 5000 nM, under 500 nM and under 50 nM, respectively.

`Cc1cc(-c2cc(=O)c3cc(C(F)(F)F)cc(C(C)Nc4ccc(Cl)nc4C(=O)O)c3o2)cc2cn(C)nc12` (single isomer, unassigned) [Example 192, 6-Chloro-3-[1-[2-(2,7-dimethylindazol-5-yl)-4-oxo-6-(trifluoromethyl)chromen-8-yl]ethylamino]pyridine-2-carboxylic acid]: the values for the IC50 in assay [1], in assay [2] and in assay [3] were 500 to 1000 nM, 500 to 1000 nM and over 500 nM, respectively.

As to `Cc1cc([C@@H](C)Nc2cccnc2C(=O)O)c2oc(-c3ccc4nc(C)sc4n3)cc(=O)c2c1` [Example 239, 3-[[(1R)-1-[6-Methyl-2-(2-methylthiazolo[5,4-b]pyridin-5-yl)-4-oxo-chromen-8-yl]ethyl]amino]pyridine-2-carboxylic acid], the IC50 in assay [1] was over 10000 nM; in assay [2], 1000 to 5000 nM; in assay [3] it was 100 to 500 nM.

On to `Cc1cc([C@@H](C)Nc2cccc(F)c2C(=O)O)c2oc(-c3cc4cnccc4o3)c(C)c(=O)c2c1` [Example 264, 2-Fluoro-6-[[(1R)-1-(2-furo[3,2-c]pyridin-2-yl-3,6-dimethyl-4-oxo-chromen-8-yl)ethyl]amino]benzoic acid; 2,2,2-trifluoroacetic acid], for which the IC50 was under 500 nM in assay [1], under 500 nM in assay [2] and under 50 nM in assay [3].

As to `Cc1cc([C@@H](C)Nc2ccc(C(F)(F)F)cc2C(=O)O)c2oc(-c3ccc4nc(C)sc4n3)c(C)c(=O)c2c1` [Example 234, 2-[[(1R)-1-[3,6-Dimethyl-2-(2-methylthiazolo[5,4-b]pyridin-5-yl)-4-oxo-chromen-8-yl]ethyl]amino]-5-(trifluoromethyl)benzoic acid], the IC50 in assay [1] is 1000 to 5000 nM; in assay [2], 1000 to 5000 nM; in assay [3], 100 to 500 nM.

Turning to `Cc1cc(C(C)Nc2ccccc2C(=O)O)c2oc(-c3cnc4c(c3)OCCO4)cc(=O)c2c1` (single isomer, unassigned) [Example 163, 2-[1-[2-(2,3-Dihydro-[1,4]dioxino[2,3-b]pyridin-7-yl)-6-methyl-4-oxo-chromen-8-yl]ethylamino]benzoic acid], the results for the half-inhibitory concentration (IC50) in assay [1], in assay [2] and in assay [3] were 5000 to 10000 nM, under 500 nM and 50 to 100 nM, respectively.

For the compound `Cc1cc([C@@H](C)Nc2cccnc2C(=O)O)c2oc(-c3cc(C)c4nn(C)cc4c3)cc(=O)c2c1` [Example 231, 3-[[(1R)-1-[2-(2,7-Dimethylindazol-5-yl)-6-methyl-4-oxo-chromen-8-yl]ethyl]amino]pyridine-2-carboxylic acid], the IC50 in assay [1] is over 10000 nM; in assay [2] it was 1000 to 5000 nM; in assay [3], 100 to 500 nM.

With `Cc1cc(C(C)Nc2ccccc2C(=O)O)c2oc(-c3ccc4nc(C#N)ccc4c3)cc(=O)c2c1` (single isomer, unassigned) [Example 207, 2-[1-[2-(2-Cyano-6-quinolyl)-6-methyl-4-oxo-chromen-8-yl]ethylamino]benzoic acid], the half-maximal inhibitory concentration (IC50) in assay [1] is 500 to 1000 nM; in assay [2] it was under 500 nM; in assay [3], 50 to 100 nM.

In the case of `Cc1cc(C(C)Nc2ccccc2C(=O)O)c2oc(-c3cc(C)c4nn(C)cc4c3)cc(=O)c2c1` (single isomer, unassigned) [Example 144, 2-[1-[2-(2,7-Dimethylindazol-5-yl)-6-methyl-4-oxo-chromen-8-yl]ethylamino]benzoic acid], the IC50 was 1000 to 5000 nM in assay [1], under 500 nM in assay [2] and under 50 nM in assay [3].

With `Cc1cc(C(C)Nc2ccccc2C(=O)O)c2oc(-c3ccc4cc[nH]c4n3)cc(=O)c2c1` (single isomer, unassigned) [Example 4, 2-[1-[6-Methyl-4-oxo-2-(1H-pyrrolo[2,3-b]pyridin-6-yl)chromen-8-yl]ethylamino]benzoic acid], the half-inhibitory concentration (IC50) was 500 to 1000 nM in assay [1], under 500 nM in assay [2] and under 50 nM in assay [3].

In the case of `Cc1cc([C@@H](C)Nc2ccccc2C(=O)O)c2oc(-c3cc4cnccc4o3)c(C(F)(F)F)c(=O)c2c1` [Example 209, 2-[[(1R)-1-[2-Furo[3,2-c]pyridin-2-yl-6-methyl-4-oxo-3-(trifluoromethyl)chromen-8-yl]ethyl]amino]benzoic acid], the 50% inhibitory concentration (IC50) was 500 to 1000 nM in assay [1], under 500 nM in assay [2] and under 50 nM in assay [3].

Regarding `Cc1cc(C(C)Nc2ccccc2C(=O)O)c2oc(-c3ccc4c(c3)c(C)nn4C)cc(=O)c2c1` (single isomer, unassigned) [Example 59, 2-[1-[2-(1,3-Dimethylindazol-5-yl)-6-methyl-4-oxo-chromen-8-yl]ethylamino]benzoic acid], the half-maximal inhibitory concentration (IC50) in assay [2] is under 500 nM; in assay [3] it was under 50 nM.
